Laboratory results from US20090053793A1, “Ethanol resistant and furfural resistant strains of E. coli FBR5 for production of ethanol from cellulosic biomass” (Rowan University, priority 2006, published 2009).

Assay: Pilot batch fermentation in LB broth with xylose
Parameters: species or system E. coli
Details: pilot fermentations
Protocol: Pilot fermentation studies were conducted in a 3L fermentation vessel in conjunction with a BioFlo 3000 system (which is marketed by New Brunswick Scientific Co. of Edison, N.J.) to monitor temperature, dissolved oxygen, air flow rate, agitation rate and pH. The media used for fermentation consisted of LB broth, xylose at various concentrations, and ampicillin. For some runs, glucose was also added to the media (see the mixed sugar fermentation discussed in connection with FIG. 12 below). To ensure sterility, the fermentor, with the media inside, along with the condenser, and a flask of distilled water were autoclaved the day before each fermentation run. An overnight culture of the strain to be used in the fermentation was then grown the night before each run. The fermentor was connected to the BioFlo 3000 system when ready to begin the run. […] The nitrogen and water flows were then opened, whereby the fermentor was ready for the addition of the overnight culture. The following was then added to the fermentor: (1) 300 mL of sterile, filtered LB broth, (2) an amount of xylose determined as a function of the desired initial sugar concentration, (3) an amount of ampicillin such that the initial concentration in the fermentor was always 100 mg/L, and (4) the overnight culture, whereby fermentation began. […]

O=C[C@H](O)[C@@H](O)[C@H](O)CO [xylose]
xylose concentration found to inhibit cell growth and ethanol production: > 175 g/L
